{"source": "the SangsterLogP compilation", "data": [{"values": [{"smiles": "O=C(NCCN1CCN(c2ccc(Cl)cc2)CC1)c1ccc(F)cc1", "logP": 3.7}, {"smiles": "COc1cccc(C(=O)NCCN2CCN(c3ncccc3C#N)CC2)c1", "logP": 2.47}, {"smiles": "COc1cccc(C(=O)NCCN2CCN(c3ccc(Cl)cn3)CC2)c1", "logP": 3.24}, {"smiles": "COc1cccc(C(=O)NCCN2CCN(c3ccc(Cl)cc3)CC2)c1", "logP": 3.31}, {"smiles": "O=C(NCCN1CCN(c2ccc(Cl)cn2)CC1)c1ccc(F)cc1", "logP": 3.36}, {"smiles": "Cc1ccc(N2CCN(CCNC(=O)c3ccc(F)cc3)CC2)cc1", "logP": 2.95}, {"smiles": "COc1cccc(C(=O)NCCN2CCN(c3ccc(C)cc3)CC2)c1", "logP": 2.83}, {"smiles": "N#Cc1cccnc1N1CCN(CCNC(=O)c2ccc(F)cc2)CC1", "logP": 2.33}, {"smiles": "N#Cc1ccc(N2CCN(CCNC(=O)c3ccc(F)cc3)CC2)cc1", "logP": 3.02}]}]}
